These are literature values, as cited in patent US11053524B2, “Microorganisms having putrescine productivity and process for producing putrescine using the same” (CJ CHEILJEDANG CORPORATION, priority 2013, dated 2021).

SMILES strings stand for the structures.

One series has as its target puuP (Escherichia coli, UniProt P76037). The conditions noted are these: read-out: Km of putrescine uptake.
In another series the target is potABCD (Escherichia coli, UniProt P0AFK9). The conditions noted are these: read-out: Km of putrescine uptake.
A further series has as its target PotFGHI (Escherichia coli, UniProt P31133). The conditions noted are these: read-out: Km of putrescine uptake.
Another series addresses potE (Escherichia coli, UniProt P0AAF1). The conditions noted are these: read-out: Km of putrescine uptake.

Sequence of potABCD (P0AFK9 24-348): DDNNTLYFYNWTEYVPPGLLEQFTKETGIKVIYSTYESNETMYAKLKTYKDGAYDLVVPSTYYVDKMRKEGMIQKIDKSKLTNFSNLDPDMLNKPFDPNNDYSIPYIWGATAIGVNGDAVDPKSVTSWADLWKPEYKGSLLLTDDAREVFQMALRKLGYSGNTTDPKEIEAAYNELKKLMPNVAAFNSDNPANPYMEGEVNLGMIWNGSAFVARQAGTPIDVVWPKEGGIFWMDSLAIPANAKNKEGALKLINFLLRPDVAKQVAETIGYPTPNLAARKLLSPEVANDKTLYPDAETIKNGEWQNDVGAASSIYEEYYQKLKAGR
Sequence of puuP (P76037 whole entry): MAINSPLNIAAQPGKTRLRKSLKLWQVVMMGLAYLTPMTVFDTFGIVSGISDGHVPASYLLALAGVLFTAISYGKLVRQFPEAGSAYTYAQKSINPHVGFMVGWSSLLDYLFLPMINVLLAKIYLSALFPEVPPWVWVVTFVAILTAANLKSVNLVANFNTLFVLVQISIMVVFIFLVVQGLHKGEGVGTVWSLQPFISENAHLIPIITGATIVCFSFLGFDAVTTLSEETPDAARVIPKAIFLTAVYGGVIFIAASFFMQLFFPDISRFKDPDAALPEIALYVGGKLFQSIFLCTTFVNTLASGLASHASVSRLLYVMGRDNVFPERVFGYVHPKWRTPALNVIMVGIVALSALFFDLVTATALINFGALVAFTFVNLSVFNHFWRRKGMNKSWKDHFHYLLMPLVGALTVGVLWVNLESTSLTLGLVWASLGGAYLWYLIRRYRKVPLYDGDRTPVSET
Sequence of PotFGHI (P31133 27-370): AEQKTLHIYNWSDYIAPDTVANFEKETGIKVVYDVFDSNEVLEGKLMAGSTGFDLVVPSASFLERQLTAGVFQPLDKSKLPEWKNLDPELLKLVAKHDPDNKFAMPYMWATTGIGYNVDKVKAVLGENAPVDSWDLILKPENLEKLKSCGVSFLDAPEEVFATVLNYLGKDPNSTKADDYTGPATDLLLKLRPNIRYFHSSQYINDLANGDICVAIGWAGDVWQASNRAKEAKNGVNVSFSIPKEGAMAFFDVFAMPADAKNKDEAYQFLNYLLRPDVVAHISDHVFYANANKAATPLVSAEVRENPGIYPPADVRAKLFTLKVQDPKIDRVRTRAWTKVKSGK
Sequence of potE (P0AAF1 whole entry): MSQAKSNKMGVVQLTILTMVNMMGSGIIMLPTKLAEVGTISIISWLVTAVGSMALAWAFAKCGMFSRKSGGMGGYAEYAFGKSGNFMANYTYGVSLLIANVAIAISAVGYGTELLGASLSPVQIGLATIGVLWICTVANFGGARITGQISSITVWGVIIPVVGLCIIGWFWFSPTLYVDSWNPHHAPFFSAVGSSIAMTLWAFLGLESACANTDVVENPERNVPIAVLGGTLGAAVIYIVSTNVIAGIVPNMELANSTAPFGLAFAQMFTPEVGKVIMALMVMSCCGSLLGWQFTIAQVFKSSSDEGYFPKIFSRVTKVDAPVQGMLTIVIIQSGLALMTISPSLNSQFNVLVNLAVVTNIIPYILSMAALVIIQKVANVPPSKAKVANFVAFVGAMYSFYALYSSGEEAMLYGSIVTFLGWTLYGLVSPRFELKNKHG

In the case of `NCCCCN` [putrescine, 1,4-butanediamine], the Km on puuP was 3700 µM; at potABCD, 1500 µM; on PotFGHI, 500 µM; at potE, 1800 µM. Besides, in the series with yeast cell, the “putrescine concentration to which the cell is sensitive” value is 90 mM. Further, the “putrescine concentration to which the cell is resistant” value in the series on yeast cell (yeast cell over-expressing TPO5 gene) was 120 mM.
